Experimental data taken from patent publication US11524966B1 (Valo Early Discovery, Inc., priority 2017, dated 2022).

target: T1, USP25 (USP25-His6, Boston Biochem E-546) (Homo sapiens, UniProt Q9UHP3); assay: Ubiquitin-Rhodamine 110 Assay for USP25 Activity, Example A-2; format: biochemical; details: Ubiquitin-Rhodamine 110 assay, Example A-2; read-out: USP25 A-2 IC50 range
T1 construct: His6; purchased Boston Biochem E-546
T1 sequence (Q9UHP3 1-1055): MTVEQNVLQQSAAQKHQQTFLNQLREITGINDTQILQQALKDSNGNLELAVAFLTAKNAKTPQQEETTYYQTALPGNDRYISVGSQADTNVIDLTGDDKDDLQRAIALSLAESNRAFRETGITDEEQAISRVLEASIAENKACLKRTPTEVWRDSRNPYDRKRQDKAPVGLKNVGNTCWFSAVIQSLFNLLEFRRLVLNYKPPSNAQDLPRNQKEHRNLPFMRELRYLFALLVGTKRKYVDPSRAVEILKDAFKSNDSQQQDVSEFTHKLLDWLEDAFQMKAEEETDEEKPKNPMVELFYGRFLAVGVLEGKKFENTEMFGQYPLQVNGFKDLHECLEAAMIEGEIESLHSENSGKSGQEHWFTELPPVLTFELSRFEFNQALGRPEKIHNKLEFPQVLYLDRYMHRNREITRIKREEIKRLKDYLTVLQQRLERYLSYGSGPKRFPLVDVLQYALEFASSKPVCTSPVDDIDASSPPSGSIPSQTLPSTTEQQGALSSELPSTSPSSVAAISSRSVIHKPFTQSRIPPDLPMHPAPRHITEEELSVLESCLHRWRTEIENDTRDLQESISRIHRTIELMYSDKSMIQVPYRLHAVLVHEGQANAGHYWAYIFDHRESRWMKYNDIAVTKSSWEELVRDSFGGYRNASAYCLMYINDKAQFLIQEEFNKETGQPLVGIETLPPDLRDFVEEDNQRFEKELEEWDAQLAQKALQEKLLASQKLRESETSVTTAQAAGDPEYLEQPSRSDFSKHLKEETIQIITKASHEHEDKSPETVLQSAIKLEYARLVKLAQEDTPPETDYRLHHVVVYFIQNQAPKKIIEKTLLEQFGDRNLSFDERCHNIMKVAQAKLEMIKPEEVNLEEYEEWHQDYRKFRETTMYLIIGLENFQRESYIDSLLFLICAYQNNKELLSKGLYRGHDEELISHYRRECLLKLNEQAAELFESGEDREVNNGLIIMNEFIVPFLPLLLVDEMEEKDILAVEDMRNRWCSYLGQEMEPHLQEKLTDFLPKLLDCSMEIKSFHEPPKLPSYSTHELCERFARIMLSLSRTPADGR
Outline: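 75 pM USP25-His6 was preincubated 30 min with compound (10-point 3-fold series, 25 μM–1.3 nM) in pH 8.0 Tris buffer with BME, BGG and Triton X-100. Then 25 nM Ub-Rh110 (<<Km) was added for 45 min at room temperature, stopped with citric acid, fluorescence read at 485/535 nm, IC50 by 4-parameter fit.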

| SMILES | IC50 |
| --- | --- |
| CO[C@H]1CN(c2cc3c(cc2C#N)C[C@@H](NC(=O)c2sc4nc(C)ccc4c2N)CC3)C[C@@H]1N [Example 201, 3-amino-N-[(2S)-6-[(3S,4S)-3-amino-4-methoxypyrrolidin-1-yl]-7-cyano-1,2,3,4-tetrahydronaphthalen-2-yl]-6-methylthieno[2,3-b]pyridine-2-carboxamide] | 0.2 to 2 µM |
| Cc1ccc2c(N)c(C(=O)N[C@H]3COc4cc(N5C[C@H](OC(C)C)[C@@H](N)C5)ccc4C3)sc2n1 [Example 202, 3-amino-N-[(3R)-7-[(3S,4S)-3-amino-4-(propan-2-yloxy)pyrrolidin-1-yl]-3,4-dihydro-2H-1-benzopyran-3-yl]6-methylthieno[2,3-b]pyridine-2-carboxamide] | 0.2 to 2 µM |
| CO[C@H]1CN(c2ccc3c(n2)CC[C@H](NC(=O)c2sc4nc(C)c(F)cc4c2N)C3)C[C@@H]1N [Example 203, 3-amino-N-[(6S)-2-[(3S,4S)-3-amino-4-methoxypyrrolidin-1-yl]-5,6,7,8-tetrahydroquinolin-6-yl}-5-fluoro-6-methylthieno[2,3-b]pyridine-2-carboxamide] | > 2 µM |
| Cc1nc2sc(C(=O)N[C@H]3CCc4nc(N5CCNCC5)ccc4C3)c(N)c2cc1F [Example 204, 3-amino-5-fluoro-6-methyl-N-[(6S)-2-(piperazin-1-yl)-5,6,7,8-tetrahydroquinolin-6-yl]thieno[2,3-b]pyridine-2-carboxamide] | 0.2 to 2 µM |
| Cc1ccc2c(N)c(C(=O)N[C@H]3Cc4ccc(N5CCNCC5)nc4[C@@H](C)C3)sc2n1 [Example 206, 3-amino-6-methyl-N-[(6R,8S)-8-methyl-2-(piperazin-1-yl)-5,6,7,8-tetrahydroquinolin-6-yl]thieno[2,3-b]pyridine-2-carboxamide] | > 2 µM |
| Cc1ccc2c(N)c(C(=O)N[C@@H]3Cc4ccc(N5CCNCC5)nc4[C@H](C)C3)sc2n1 [Example 207, 3-amino-6-methyl-N-[(6S,8R)-8-methyl-2-(piperazin-1-yl)-5,6,7,8-tetrahydroquinolin-6-yl]thieno[2,3-b]pyridine-2-carboxamide] | > 2 µM |
| Cc1ccc2c(N)c(C(=O)N[C@H]3Cc4ccc(N5CCNCC5)nc4[C@H](C)C3)sc2n1 [Example 208, 3-amino-6-methyl-N-[(6R,8R)-8-methyl-2-(piperazin-1-yl)-5,6,7,8-tetrahydroquinolin-6-yl]thieno[2,3-b]pyridine-2-carboxamide] | 0.2 to 2 µM |
| Cc1ccc2c(N)c(C(=O)N[C@H]3COc4cc(N5C6CNCC5COC6)ccc4C3)sc2n1 [Example 209, 3-amino-6-methyl-N-[(3R)-7-{3-oxa-7,9-diazabicyclo[3.3.1]nonan-9-yl}-3,4-dihydro-2H-1-benzopyran-3-yl]thieno[2,3-b]pyridine-2-carboxamide] | 0.001 to 0.05 µM |
| CO[C@@]1(C)CN(c2ccc3c(n2)CC[C@H](NC(=O)c2sc4nc(C)ccc4c2N)C3)C[C@@H]1N [Example 210, 3-amino-N-[(6S)-2-[(3S,4S)-4-amino-3-methoxy-3-methylpyrrolidin-1-yl]-5,6,7,8-tetrahydroquinolin-6-yl]-6-methylthieno[2,3-b]pyridine-2-carboxamide] | > 2 µM |
| CO[C@]1(C)CN(c2ccc3c(n2)CC[C@H](NC(=O)c2sc4nc(C)ccc4c2N)C3)C[C@H]1N [Example 211, 3-amino-N-[(6S)-2-[(3R,4R)-4-amino-3-methoxy-3-methylpyrrolidin-1-yl]-5,6,7,8-tetrahydroquinolin-6-yl]-6-methylthieno[2,3-b]pyridine-2-carboxamide] | > 2 µM |
| CN[C@H]1CN(c2ccc3c(c2)OC[C@H](NC(=O)c2sc4nc(C)ccc4c2N)C3)C[C@@H]1OC [Example 212, 3-amino-N-[(3R)-7-[(3S,4S)-3-methoxy-4-(methylamino)pyrrolidin-1-yl]-3,4-dihydro-2H-1-benzopyran-3-yl]-6-methylthieno[2,3-b]pyridine-2-carboxamide] | 0.2 to 2 µM |
| CO[C@H]1CN(c2ccc3c(c2)OC[C@H](NC(=O)c2sc4nc(C)ccc4c2N)C3)C[C@@H]1NC(C)=O [Example 213, 3-amino-N-[(3R)-7-[(3S,4S)-3-acetamido-4-methoxypyrrolidin-1-yl]-3,4-dihydro-2H-1-benzopyran-3-yl]-6-methylthieno[2,3-b]pyridine-2-carboxamide] | 0.2 to 2 µM |
| Cc1ccc2c(N)c(C(=O)N[C@H]3COc4cc(N5C[C@H](N)C(C)(C)C5)ccc4C3)sc2n1 [Example 214, 3-amino-N-[(3R)-7-[(4R)-4-amino-3,3-dimethylpyrrolidin-1-yl]-3,4-dihydro-2H-1-benzopyran-3-yl]-6-methylthieno[2,3-b]pyridine-2-carboxamide] | 0.05 to 0.2 µM |
| Cc1ccc2c(N)c(C(=O)N[C@H]3COc4cc(N5C[C@@H](N)C(C)(C)C5)ccc4C3)sc2n1 [Example 215, 3-amino-N-[(3R)-7-[(4S)-4-amino-3,3-dimethylpyrrolidin-1-yl]-3,4-dihydro-2H-1-benzopyran-3-yl]-6-methylthieno[2,3-b]pyridine-2-carboxamide] | 0.05 to 0.2 µM |
| Cc1ccc2c(N)c(C(=O)N[C@H]3CCc4nc(N5CC[C@H]6CNC[C@H]65)ccc4C3)sc2n1 [Example 216, N-[(6S)-2-[(3aS,6aS)-octahydropyrrolo[2,3-c]pyrrol-1-yl}-5,6,7,8-tetrahydroquinolin-6-yl]-3-amino-6-methylthieno[2,3-b]pyridine-2-carboxamide] | 0.2 to 2 µM |
| Cc1ccc2c(N)c(C(=O)N[C@H]3CCc4nc(N5CC[C@@H]6CNC[C@@H]65)ccc4C3)sc2n1 [Example 217, N-[(6S)-2-[(3aR,6aR)-octahydropyrrolo[2,3-c]pyrrol-1-yl]-5,6,7,8-tetrahydroquinolin-6-yl]-3-amino-6-methylthieno[2,3-b]pyridine-2-carboxamide] | 0.05 to 0.2 µM |
| Cc1cc(C)c2c(N)c(C(=O)N[C@H]3CCc4nc(N5CC[C@H]6CNC[C@H]65)ccc4C3)sc2n1 [Example 218, N-[(6S)-2-[(3aS 6aS)-octahydropyrrolo[2,3-c]pyrrol-1-yl]-5,6,7,8-tetrahydroquinolin-6-yl]-3-amino-4,6-dimethylthieno[2,3-b]pyridine-2-carboxamide] | 0.2 to 2 µM |
| Cc1cc(C)c2c(N)c(C(=O)N[C@H]3CCc4nc(N5CC[C@@H]6CNC[C@@H]65)ccc4C3)sc2n1 [Example 219, N-[(6S)-2-[(3aR,6aR)-octahydropyrrolo[2,3-c]pyrrol-1-yl]-5,6,7,8-tetrahydroquinolin-6-yl]-3-amino-4,6-dimethylthieno[2,3-b]pyridine-2-carboxamide] | 0.05 to 0.2 µM |
| Cc1ccc2c(N)c(C(=O)N[C@H]3COc4cc(N5CC[C@H]6CNC[C@H]65)cc(F)c4C3)sc2n1 [Example 220, N-[(3R)-7-[(3aS,6aS)-octahydropyrrolo[2,3-c]pyrrol-1-yl]-5-fluoro-3,4-dihydro-2H-1-benzopyran-3-yl]-3-amino-6-methylthieno[2,3-b]pyridine-2-carboxamide] | 0.05 to 0.2 µM |
| Cc1ccc2c(N)c(C(=O)N[C@H]3COc4cc(N5CC[C@@H]6CNC[C@@H]65)cc(F)c4C3)sc2n1 [Example 221, N-[(3R)-7-[(3aR,6aR)-octahydropyrrolo[2,3-c]pyrrol-1-yl]-5-fluoro-3,4-dihydro-2H-1-benzopyran-3-yl]-3-amino-6-methylthieno[2,3-b]pyridine-2-carboxamide] | 0.2 to 2 µM |
| Cc1ccc2c(N)c(C(=O)N[C@H]3COc4cc(N5CC[C@H]6CCNC[C@H]65)ccc4C3)sc2n1 [Example 224, N-[(3R)-7-[(3aR,7aS)-octahydro-1H-pyrrolo[2,3-c]pyridin-1-yl]-3,4-dihydro-2H-1-benzopyran-3-yl]-3-amino-6-methylthieno[2,3-b]pyridine-2-carboxamide] | 0.05 to 0.2 µM |
| Cc1ccc2c(N)c(C(=O)N[C@H]3COc4cc(N5CC[C@@H]6CCNC[C@@H]65)ccc4C3)sc2n1 [Example 225] | 0.001 to 0.05 µM |
| Cc1cc(C)c2c(N)c(C(=O)N[C@H]3COc4cc(N5CC[C@H]6CNC[C@H]65)ccc4C3)sc2n1 [Example 226, N-[(3R)-7-[(3aS,6aS)-octahydropyrrolo[2,3-c]pyrrol-1-yl]-3,4-dihydro-2H-1-benzopyran-3-yl]-3-amino-4,6-dimethylthieno[2,3-b]pyridine-2-carboxamide] | 0.05 to 0.2 µM |
